This is an account of results in PMC7317715, “Discovery of a novel fluorescent chemical probe suitable for evaluation of neuropilin‐1 binding of small molecules” (Drug Development Research, 2020).

Where two headings read alike, the source gives them in different places. Bridge positions count the residues as written; N and C are the ends. Peptide text beside a SMILES is read from it.

Assay [1] addresses T1, NRP1 b1 (Homo sapiens, UniProt O14786).
T1 construct: Ligands were evaluated against the NRP1‐b1 domain
T1 sequence (O14786 275-424 limits assumed): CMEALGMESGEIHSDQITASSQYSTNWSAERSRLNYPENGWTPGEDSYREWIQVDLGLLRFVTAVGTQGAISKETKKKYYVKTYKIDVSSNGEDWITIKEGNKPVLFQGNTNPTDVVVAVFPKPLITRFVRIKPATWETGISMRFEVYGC
Nature of the assay: FP competition experiment with DS108 probe. The class given is binding. Particulars: for IC50: FP competition, DS108 0.75 μM, NRP1 b1 7.5 μM, PBS‐P buffer; for Ki: calculated from FP competition IC50 using kinetic equations (Nikolovska‐Coleska et al., 2004). On the procedure:
Competition experiments: FP samples were prepared in the following order—ligand in PBS‐P buffer (20 μl), NRP1‐b1 protein ([…], 20 μl) in PBS‐P buffer, and DS108 probe (1,500 nM, 40 μl) in PBS‐P buffer. FP was measured and normalized to experiment controls (buffer + probe, buffer + probe + protein) using a BMG Labtech PHERAstar® plate reader (filter settings: 485 nm [excitation] and 520 nm [emission]). Background FP was blanked using a PBS‐P buffer only control.
Data processing: raw data were processed using OriginPro curve fitting software to obtain the IC50s and error values shown. A dose–response curve fitting model was utilized for the competition experiments. A web based IC50‐to‐Ki converter that computes Ki values from experimentally determined IC50 values was employed (Cer, Mudunuri, Stephens, & Lebeda, 2009) (https://bioinfo-abcc.ncifcrf.gov/IC50_Ki_Converter/index.php) Each experiment was conducted in triplicate and repeated two times. The statistical reproducibility of this assay was evaluated using the z factor equation (Scheme 2).

Assay [2] deals with NRP1. Particulars: NRP1 inhibition using bt‐VEGF165 binding; ref Jia et al., 2006; read-out: Literature IC50; cited from earlier work.
The target of assay [3] is T2, NRP1‐b1 domain (Homo sapiens, UniProt O14786).
T2 construct: Ligands were evaluated against the NRP1‐b1 domain
T2 sequence (O14786 275-424 limits assumed): T1 sequence (O14786 275-424 limits assumed)
The experiment in a line: SPR binding of fluorescent probes to immobilised NRP1-b1. Particulars: for Kd: NRP1‐b1 on CM5 chip, 3% DMSO in PBS‐P, 1:1 binding model, read-out: KD (μM, affinity); for Observed Rmax (% of theoretical): experimentally observed Rmax as percentage of theoretical Rmax (quality control). The method, then: All SPR analysis was performed on a BIAcore T200 system using series S CM5 sensor chips. The […] SPR is effectively a stop‐flow instrument, and dissociation from the immobilized protein is initiated by the absence of analyte (ligand) when buffer alone is perfused, this setup allows the determination of on and off rates and equilibrium binding constants. Relatively high DMSO concentrations are normal for SPR experiments to limit solubility problems and minimize nonspecific aggregation. Extensive DMSO controls are included and automatically subtracted from the sensorgrams. Sensorgrams were double referenced by subtracting the response on a reference flow cell and a blank sample. Ligands were evaluated against the NRP1‐b1 domain. NRP1‐b1 was covalently attached to a CM5 chip via amine coupling (Powell et al., 2018) with a surface density of 2,000–3,000 RU. Binding of novel fluorescent probes (0.4–100 μM) were analyzed by multicycle sequential injections (30–120 s association time) followed by undisturbed dissociation (30–60 s). A regeneration step was not used. Peptide stocks were dissolved in dimethyl sulfoxide (DMSO), and the final sample solutions for kinetic affinity experiments contained 3% DMSO in 1× phosphate‐buffered saline P20 buffer (PBS‐P, Cat no 28995084, GE Healthcare Ltd.). DMSO solvent effects were corrected for with eight calibration solutions ([…] in PBS‐P). Equilibrium constants (KD) were calculated using either kinetic or affinity models, assuming simple 1:1 (Langmuir) binding. Data processing and analysis were performed using BIAevaluation and OriginPro software. The theoretical Rmax (the maximal feasible signal between a ligand—analyte pair) for each compound/protein pair was calculated using Scheme 1 (Marquart, 2017).
The experimentally observed Rmax was then calculated as a percentage of the theoretical Rmax as a quality control measure.
For orientation: In SPR one partner is held on a chip, and binding of the other changes the refractive index at the surface.

The target of assay [4] is T1, NRP1 b1. The experiment in a line: FP saturation binding / protein titration (dynamic range). As to conditions: for Kd: KD derived from the 50% signal maximum; for Dynamic window (mP): FP, probe + NRP1‐b1 vs probe only, probe and NRP‐b1 conc per probe as in Table 2. The method, then:
Initial experiments were performed using PBS‐P buffer with 3% DMSO in a final volume of 80 μl. The reaction plates or tubes were kept on ice during pipetting.
Saturation binding: dynamic range and protein titration experiments were performed at probe concentrations selected with guidance from in‐house SPR analysis, literature KD of the untagged compound, and an FP technical resource guide (Invitrogen, 2006). The NRP‐b1 concentrations ranged from 10 nM to 30 μM.

The subject of assay [5] is NRP1. Also noted: method as in Powell et al., 2018. Particulars: ref Powell et al., 2018; cited from earlier work.
For assay [6], the target named is 5-Flu-RPARPAR. Nature of the assay: SPR.
Assay [7] addresses 5-Flu-RPARPAR.

In general, IC50 refers to the point on the concentration scale where inhibition reaches its midpoint. What is called Ki is a measure of affinity in units of concentration, obtained from inhibition or displacement. In the case of `CC(C)C[C@@H]1NC(=O)[C@H](CCC(N)=O)NC(=O)[C@H](CCCNC(=N)N)NC(=O)[C@H](C)NC(=O)[C@H](CCCCN)NC(=O)[C@@H]2CSSC[C@@H](C(=O)N[C@@H](CC(=O)O)C(=O)N[C@@H](CCCCN)C(=O)N3CCC[C@H]3C(=O)N[C@@H](CCCNC(=N)N)C(=O)N[C@@H](CCCNC(=N)N)C(=O)O)NC(=O)[C@H](CCCNC(=N)N)NC(=O)[C@H](CSSC[C@H](NC(=O)[C@@H](N)CO)C(=O)N[C@@H](CCCCN)C(=O)N[C@@H](CC(N)=O)C(=O)N[C@@H]([C@@H](C)O)C(=O)N[C@@H](CC(=O)O)C(=O)N[C@@H](CO)C(=O)N[C@@H](CCCNC(=N)N)C(=O)N2)NC(=O)[C@H]([C@@H](C)O)NC(=O)[C@H](CCCNC(=N)N)NC(=O)[C@H](CCC(=O)O)NC(=O)[C@H](CC(N)=O)NC(=O)[C@H](CC(C)C)NC(=O)[C@H](CCC(=O)O)NC1=O` [EG03287] (H-SCKNTDSRCKARQLELNERTCRCDKPRR-OH; disulfide 2-21, 9-23; N-terminus and C-terminus assumed), in assay [1], the half-maximal inhibitory concentration (IC50) was determined as 5.77 ± 0.87 µM and the Ki is 2.47 µM. Further, the IC50 in assay [2] was 1.2 µM.

A word on the Kd: it is the free concentration of one partner at which half of the binding sites on the other are occupied at equilibrium, for simple one-to-one binding. For `N=C(N)NCCC[C@H](NC(=O)c1sccc1NS(=O)(=O)c1cc(-c2ccc(CNC(=O)CCOCCOCCOCCOCCOCc3cn(CCCNC(=O)c4ccc5c(c4)C(=O)OC54c5ccc(O)cc5Oc5cc(O)ccc54)nn3)cc2)cc2c1OCC2)C(=O)O` [probe 4, (3‐((5‐(4‐(1‐(1‐(3‐(3′,6′‐dihydroxy‐3‐oxo‐3H‐spiro(isobenzofuran‐1,9′‐xanthene)‐5‐carboxamido)propyl)‐1H‐1,2,3‐triazol‐4‐yl)‐17‐oxo‐2,5,8,11,14‐pentaoxa‐18‐azanonadecan‐19‐yl)phenyl)‐2,3‐dihydrobenzofuran)‐7‐sulfonamido)thiophene‐2‐carbonyl)‐L‐arginine], in assay [3], the Kd came out at 3.3 ± 0.2 µM and the “Observed Rmax (% of theoretical)” value is listed as 43%. In assay [4] (FP protein titration), this molecule displayed a Kd of 0.62 ± 0.098 µM. The “Dynamic window (mP)” value in assay [4] is listed as 5.2 mP.

For `N=C(N)NCCC[C@H](NC(=O)c1sccc1NS(=O)(=O)c1cc(-c2ccc(CNC(=O)CCOCCOCCOCCNC(=O)c3ccc(-c4c5ccc(=O)cc-5oc5cc(O)ccc45)c(C(=O)O)c3)cc2)cc2c1OCC2)C(=O)O` [probe 3, (S)‐5‐((1‐(4‐(7‐(N‐(2‐((1‐carboxy‐4‐guanidinobutyl)carbamoyl)thiophen‐3‐yl)sulfamoyl)‐2,3‐dihydrobenzofuran‐5‐yl)phenyl)‐3‐oxo‐6,9,12‐trioxa‐2‐azatetradecan‐14‐yl)carbamoyl)‐2‐(6‐hydroxy‐3‐oxo‐3H‐xanthen‐9‐yl)benzoic acid], in assay [3], the Kd was determined as 24.6 ± 6.3 µM and the “Observed Rmax (% of theoretical)” value is on record as 77%. The molecule also came in with a Kd in assay [4] (FP protein titration) of 4.61 ± 0.19 µM. The “Dynamic window (mP)” value in assay [4] is reported as 30.7 mP.

Regarding `N=C(N)NCCC[C@H](NC(=O)c1sccc1NS(=O)(=O)c1cc(-c2ccc(CN)cc2)cc2c1OCC2)C(=O)O` [EG01377], in assay [1], the IC50 is 16.8 ± 1.25 µM and the Ki was 7.39 µM. Further, in assay [5], the NRP1 antagonistic properties entry is reported as “submicromolar” and the “selectivity for NRP1 over NRP2 receptor” value is “selective for NRP1”.

RPARPAR [reference compound]: the figures for the Kd in assay [3] and in assay [4] ([…]) were 69 ± 22 µM and 1.88 ± 1.4 µM, respectively. The “Observed Rmax (% of theoretical)” value in assay [3] is 60.61%. Moreover, in assay [4], the “Dynamic window (mP)” value came out at 22.6 mP.

B1: NRP1 b1 b1 domain (protein)
chain: FKCMEALGMESGEIHSDQITASSQYSTNWSAERSRLNYPENGWTPGEDSYREWIQVDLGLLRFVTAVGTQGAISKETKKKYYVKTYKIDVSSNGEDWITIKEGNKPVLFQGNTNPTDVVVAVFPKPLITRFVRIKPATWETGISMRFEVYGCKIT
As for B1, the Kd in assay [6] amounted to 69 µM; in assay [7], 1.88 µM.
